≈ marks a conversion by molar mass, not a printed value. Entries after “also recorded” stand apart in the source; their conditions may differ.
Experiments:
Assay type in all cases: physicochemical
[1] = Grinding stability (XRPD before and after grinding); conditions: manually ground in a mortar for 5 minutes
Protocol: About 20 mg of Form C in the present disclosure and crystalline form I disclosed in WO2016120530A1 were manually ground in a mortar for 5 minutes. XRPD tests of the samples before and after grinding were carried out. The XRPD patterns of Form C were shown in FIG. 20 (top: XRPD pattern after grinding, bottom: XRPD pattern before grinding), and the XRPD patterns of crystalline form I were shown in FIG. 21 (top: XRPD pattern after grinding, bottom: XRPD pattern before grinding).

[2] = Storage stability of crystalline form (XRPD); conditions: for Change of Solid Form: 3 months
Protocol: Samples of Form B were stored under different conditions of 25° C./60% RH (open), 40° C./75% RH (open) for 3 months, and XRPD was applied to test the crystalline form.
Samples of Form C were stored at 25° C./60% RH (open) for 1 month, and XRPD was applied to test the crystalline form.

[3] = Hygroscopicity by dynamic vapor sorption (DVS); conditions: for Hygroscopicity / Weight gain under 80% RH: DVS, 80% RH; for Solid Form after DVS: XRPD after DVS test
Protocol: Dynamic vapor sorption (DVS) was applied to test hygroscopicity of Form B, Form C and crystalline form I in the prior art with about 10 mg of samples. The DVS plot of Form B is substantially as depicted in FIG. 10 and the XRPD pattern overlay before and after DVS test of Form B is substantially as depicted in FIG. 11. The DVS plot of Form C is substantially as depicted in FIG. 12 and the XRPD pattern overlay before and after DVS test of Form C is substantially as depicted in FIG. 13. The DVS plot of crystalline form I in the prior art is substantially as depicted in FIG. 14.

[4] = Solubility in SGF, FeSSIF and FaSSIF by HPLC
Protocol: High Performance Liquid Chromatography (HPLC) data in the present disclosure are collected from Agilent 1260 with diode array detector (DAD).
The HPLC method parameters for solubility in the present disclosure are as follows:
1. Column: Agilent Infinity Lab Poroshell 120 EC-C18 150*3.0 mm, 2.7 μm
2. Mobile Phase: A: 25 mmol/L KH2PO4 aqueous solution
3. Flow rate: 0.7 mL/min 4. Injection Volume: 5 μL 5. Detection wavelength: 220 nm 6. Column Temperature: 40° C. 7. Diluent: Acetonitrile/H2O (v/v, 1/1)
(§1) Samples of Form B in the present disclosure and crystalline form I disclosed in WO2016120530A1 were suspended into SGF (simulated gastric fluids, pH=1.8), FeSSIF (Fed state simulated intestinal fluids, pH=5.0) and FaSSIF (Fasted state simulated intestinal fluids, pH=6.5) to get saturated solutions. After equilibrated for 1 hour and 4 hours, concentrations of the saturated solutions were measured by HPLC.
as §1, with “C” for “B”, “into” for “into SGF (simulated gastric fluids, pH=1.8),”

[5] = Particle size distribution (laser particle size analyzer); conditions: for D10 / D50 / D90 / MV (average particle size by volume): wet process, Isopar G
Protocol: The particle size distribution test in the present disclosure is acquired by the S3500 laser particle size analyzer of Microtrac. Microtrac S3500 is equipped with the SDC (Sample Delivery Controller). The test is carried out by wet process, and the dispersion medium is Isopar G. The parameters are as follows:
The particle size distribution of Form B in the present disclosure and Form I disclosed in WO2016120530A1 were tested.

Time the form keeps stable ([2]; 25° C./60% RH)	Hygroscopicity [3]	Weight gain under 80% RH [3]	Solid Form after DVS [3]	Solubility ([4]; FaSSIF pH=6.5, 1 hour)	Solubility ([4]; FaSSIF pH=6.5, 4 hours)	Solubility ([4]; FeSSIF pH=5.0, 1 hour)	Solubility ([4]; FeSSIF pH=5.0, 4 hours)	Change of Solid Form ([2]; 25° C./60% RH (open))	Time the form keeps stable ([2]; 40° C./75% RH)	Change of Solid Form ([2]; 40° C./75% RH (open))	Particle size distribution pattern [5]	D10 [5]	D50 [5]	D90 [5]	MV (average particle size by volume) [5]	Solubility ([4]; SGF pH=1.8, 1 hour)	Solubility ([4]; SGF pH=1.8, 4 hours)	solubility at 4 h ([4]; fed state simulated intestinal fluid (FeSSIF), pH 5, fessif, thermodynamic from solid, FeSSIF pH=5.0, 4 hours)	SMILES	Crystallinity after grinding [1]
at least 1 month	slightly hygroscopic	1.60%	remain unchanged; also recorded: Form C	39.0 µg/mL (≈ 97.8 µM)	35.5 µg/mL (≈ 89 µM)	469.6 µg/mL (≈ 1180 µM)	163.1 µg/mL (≈ 409 µM)												CC(O)c1cc(C(=O)N[C@@H](C)Cn2ccc(-c3ccc(C#N)c(Cl)c3)n2)n[nH]1 (single isomer, unassigned) [Form C]	remains good crystallinity after grinding
at least 3 months	slightly hygroscopic	0.93%	remain unchanged; also recorded: Form B	3.0 µg/mL (≈ 7.52 µM)	0.5 µg/mL (≈ 1.25 µM)	408.1 µg/mL (≈ 1020 µM)		physically stable	at least 3 months	physically stable	unimodal and normal distribution	1.20 μm	2.73 μm	5.49 μm	3.12 μm	62.7 µg/mL (≈ 157 µM)	33.5 µg/mL (≈ 84 µM)	288 µg/mL (≈ 722 µM)	CC(O)c1cc(C(=O)N[C@@H](C)Cn2ccc(-c3ccc(C#N)c(Cl)c3)n2)n[nH]1 (single isomer, unassigned) [Form B]	
	hygroscopic	>2.37%		1.0 µg/mL (≈ 2.51 µM)	0.1 µg/mL (≈ 0.251 µM)	183.1 µg/mL (≈ 459 µM)	206.3 µg/mL (≈ 517 µM)				bimodal distribution	24.97 μm	100.5 μm	297.4 μm	136.1 μm	14.0 µg/mL (≈ 35.1 µM)	9.9 µg/mL (≈ 24.8 µM)		CC(O)c1cc(C(=O)N[C@@H](C)Cn2ccc(-c3ccc(C#N)c(Cl)c3)n2)n[nH]1 (some centres unmarked) [Crystalline form I, reference compound]	decreased significantly
